# Assay results: US12428406B2 (PMV Pharmaceuticals, Inc., priority 2019, dated 2025)
# Biological target: T1, p53 Y220C (Homo sapiens, UniProt P04637, Y220C)
# T1 construct: The recombinant protein was a truncation mutant containing only amino acids 94-312 of p53; made in house; host or cells: E. coli
# Experiment: In vitro DNA binding activity assay (HTRF / TR-FRET): stabilization of p53 Y220C and increase of its DNA binding activity
# Format: biochemical
# Conditions: recombinant His-tagged p53 Y220C DNA binding domain (aa 94-312), biotin-labeled consensus DNA, incubated at 27° C. or 29° C. for 60 min
# Procedure, shortened: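 Homogeneous time-resolved fluorescence with E. coli-derived p53 Y220C and biotinylated consensus DNA. Room-temperature incubations of 15 and 20 min precede reading. SC150 denotes the compound concentration required for 50% increased DNA binding.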
# T1 sequence (P04637 94-312, change not shown): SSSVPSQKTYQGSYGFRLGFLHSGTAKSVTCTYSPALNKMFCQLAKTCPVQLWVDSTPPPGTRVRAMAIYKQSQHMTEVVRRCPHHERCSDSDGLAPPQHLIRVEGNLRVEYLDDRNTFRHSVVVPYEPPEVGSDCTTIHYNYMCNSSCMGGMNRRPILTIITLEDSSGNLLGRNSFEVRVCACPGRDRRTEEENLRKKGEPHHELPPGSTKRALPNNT
row,SMILES,SC150 (concentration of the compound required to increase the DNA binding activity by 50%)
1,"CCN(CC)[C@H]1CC[C@H](Nc2cccc3c2cc(C#CCNc2ccc(S(N)(=O)=O)cc2OC)n3CC(F)(F)F)CC1 [Compound 146A, 3-methoxy-4-{[3-(4-{[(1R,4R)-4-(diethyl-amino)cyclohexyl]amino}-1-(2,2,2-trifluoroethyl)-1H-indol-2-yl)prop-2-yn-1-yl]amino}benzene-1-sulfonamide]",+ (+ = 0 μM ≤ SC150 < 0.05 μM)
2,"COCC(O)CN1CCC(Nc2cccc3c2cc(C#CCNc2ccc(S(C)(=O)=O)cc2OCC(F)(F)F)n3CC(F)(F)F)CC1 (centres unmarked) [Compound 645A, 1-(4-{[2-(3-{[4-methanesulfonyl-2-(2,2,2-trifluoroethoxy)phenyl]amino}prop-1-yn-1-yl)-1-(2,2,2-trifluoroethyl)-1H-indol-4-yl]amino}piperidin-1-yl)-3-methoxypropan-2-ol]",+ (+ = 0 μM ≤ SC150 < 0.05 μM)
3,"COCC(O)CN1CCC(Nc2cccc3c2cc(C#CCNc2ccc(S(C)(=O)=O)cc2OC)n3CCF)CC1 (centres unmarked) [Compound 698A, 1-(4-{[1-(2-fluoroethyl)-2-{3-[(4-methanesulfonyl-2-methoxyphenyl)amino]prop-1-yn-1-yl}-1H-indol-4-yl]amino}piperidin-1-yl)-3-methoxypropan-2-ol]",+ (+ = 0 μM ≤ SC150 < 0.05 μM)
4,CNC(=O)c1ccc(NCC#Cc2cc3c(N[C@H]4CCNC[C@H]4F)cccc3n2CC(F)(F)F)c(OC)c1 [Compound 851A],+ (+ = 0 μM ≤ SC150 < 0.05 μM)
5,"COc1cc(C(=O)O)ccc1NCC#Cc1cc2c(N[C@H]3CCN(CC(=O)N(C)C)C[C@H]3F)cccc2n1CC(F)(F)F [Compound 927A, 4-{[3-(4-{[(3R,4S)-1-[(dimethylcarbamoyl)methyl]-3-fluoropiperidin-4-yl]amino}-1-(2,2,2-trifluoroethyl)-1H-indol-2-yl)prop-2-yn-1-yl]amino}-3-methoxybenzoic acid]",+ (+ = 0 μM ≤ SC150 < 0.05 μM)
6,"COc1cc(S(C)(=O)=O)ccc1NCC#Cc1cc2c(N[C@@H]3CCC[C@H](n4nn[nH]c4=O)C3)cccc2n1CC(F)(F)F [Compound 448A, 1-[(1S,3R)-3-[(2-{3-[(4-methanesulfonyl-2-methoxyphenyl)amino]prop-1-yn-1-yl}-1-(2,2,2-trifluoroethyl)-1H-indol-4-yl)amino]cyclo-hexyl]-4,5-dihydro-1H-1,2,3,4-tetrazol-5-one]",++ (++ = 0.05 μM ≤ SC150 < 0.1 μM)
7,"COc1cc(C(N)=O)ccc1NCC#Cc1cc2c(N[C@H]3CCO[C@@H](C)C3)cccc2n1CC(F)(F)F [Compound 1021A, 3-methoxy-4-{[3-(4-{[(2S,4S)-2-methyloxan-4-yl]amino}-1-(2,2,2-trifluoroethyl)-1H-indol-2-yl)prop-2-yn-1-yl]amino}benzamide]",+ (+ = 0 μM ≤ SC150 < 0.05 μM)
8,"COc1cc(C(=O)NCC(=O)O)ccc1NCC#Cc1cc2c(N[C@@H]3CCN(C)C[C@@H]3F)cccc2n1CC(F)(F)F [Compound 896A, (4-((3-(4-(((3S,4R)-3-fluoro-1-methylpiperidin-4-yl)amino)-1-(2,2,2-trifluoroethyl)-1H-indol-2-yl)prop-2-yn-1-yl)amino)-3-methoxybenzoyl)glycine]",+ (+ = 0 μM ≤ SC150 < 0.05 μM)
9,"COc1cc(S(N)(=O)=O)ccc1NCC#Cc1cc2c(N[C@@H]3CCN(C)C[C@@H]3F)cccc2n1CC(F)(F)F [Compound 791A, 4-{[3-(4-{[(3S,4R)-3-fluoro-1-methylpiperidin-4-yl]amino}-1-(2,2,2-trifluoroethyl)-1H-indol-2-yl)prop-2-yn-1-yl]amino}-3-methoxybenzene-1-sulfonamide]",+ (+ = 0 μM ≤ SC150 < 0.05 μM)
10,"COc1cc(S(C)(=O)=O)ccc1NCC#Cc1cc2c(N[C@@H]3CCN(C(=O)CN(C)C)C[C@@H]3F)cccc2n1CC(F)(F)F [Compound 855A, 2-(dimethylamino)-1-[(3S,4R)-3-fluoro-4-[(2-{3-[(4-methanesulfonyl-2-methoxyphenyl)amino]prop-1-yn-1-yl}-1-(2,2,2-trifluoroethyl)-1H-indol-4-yl)amino]piperidin-1-yl]ethan-1-one]",+ (+ = 0 μM ≤ SC150 < 0.05 μM)
11,"CNC(=O)c1ccc(NCC#Cc2cc3c(N[C@H]4CC[C@H](N5CCC6(CCOCC6)CC5)CC4)cccc3n2CC(F)(F)F)c(OC)c1 [Compound 416A, 3-methoxy-N-methyl-4-{[3-(4-{[(1R,4R)-4-{3-oxa-9-azaspiro[5.5]undecan-9-yl}cyclohexyl]amino}-1-(2,2,2-trifluoroethyl)-1H-indol-2-yl)prop-2-yn-1-yl]amino}benzamide]",+ (+ = 0 μM ≤ SC150 < 0.05 μM)
12,"CN1CCC(Nc2cccc3c2cc(C#CCNc2ccc(CN4CCOCC4)cc2)n3CC(F)(F)F)CC1 [Compound 508A, N-(1-methylpiperidin-4-yl)-2-[3-({4-[(morpholin-4-yl)methyl]phenyl}amino)prop-1-yn-1-yl]-1-(2,2,2-trifluoroethyl)-1H-indol-4-amine]",+ (+ = 0 μM ≤ SC150 < 0.05 μM)
13,"CNS(=O)(=O)c1ccc(NCC#Cc2cc3c(N[C@H]4CC[C@H](N5CC6(COC6)C5)CC4)cccc3n2CC(F)(F)F)c(OC)c1 [Compound 263A, 4-((3-(4-(((1R,4R)-4-(2-oxa-6-azaspiro[3.3]heptan-6-yl)cyclo-hexyl)amino)-1-(2,2,2-trifluoroethyl)-1H-indol-2-yl)prop-2-yn-1-yl)amino)-3-methoxy-N-methylbenzene-sulfonamide]",+ (+ = 0 μM ≤ SC150 < 0.05 μM)
14,"CN(C)[C@H]1CC[C@H](Nc2cccc3c2cc(C#CCn2c(=O)oc4cc(S(C)(=O)=O)ccc42)n3CC(F)(F)F)CC1 [Compound 125A, 3-(3-(4-(((1R,4R)-4-(dimethylamino)cyclohexyl)amino)-1-(2,2,2-trifluoroethyl)-1H-indol-2-yl)prop-2-yn-1-yl)-6-(methylsulfonyl)benzo[d]oxazol-2 (3H)-one]",++++ (++++ = 0.2 μM ≤ SC150 < 1 μM)
15,"CNC(=O)c1cc(OC)c(NCC#Cc2cc3c(N[C@@H]4CCN(C)C[C@@H]4F)cccc3n2CC(F)(F)F)cc1F [Compound 826A, 2-fluoro-4-{[3-(4-{[(3S,4R)-3-fluoro-1-methylpiperidin-4-yl]amino}-1-(2,2,2-trifluoroethyl)-1H-indol-2-yl)prop-2-yn-1-yl]amino}-5-methoxy-N-methylbenzamide]",+ (+ = 0 μM ≤ SC150 < 0.05 μM)
16,COc1cc(C(=O)NCCO)ccc1NCC#Cc1cc2c(N[C@@H]3CCN(C)C[C@@H]3F)cccc2n1CC(F)(F)F [Compound 947A],+ (+ = 0 μM ≤ SC150 < 0.05 μM)
17,COc1cc(S(N)(=O)=O)ccc1NCC#Cc1cc2c(NC3CCN(C(=O)CN(C)C)CC3)cccc2n1CC(F)(F)F [Compound 751A],+ (+ = 0 μM ≤ SC150 < 0.05 μM)
